Assay results reported in US9611286B2, “Ruthenium carbon monoxide releasing molecules and uses thereof” (Alfama, Inc., priority 2011, dated 2017).

Assays:
CD8β = assay: CD8-β-chain mRNA expression in brain by qRT-PCR; assay type: in vivo, C57BL/6 mice
Protocol: (§1) Mice were sacrificed, when infected control mice presented signs of ECM, and perfused intracardially with PBS to remove circulating RBC and leukocytes from the organs. RNA was isolated from brains, livers and lungs using Trizol Reagent (Invitrogen, Life technologies), according to the manufacturer's recommendation. The synthesis of the first-strand cDNA from the RNA templates was carried out using the Transcriptor First Strand cDNA Synthesis Kit (Roche). RT-PCR reactions were performed in the presence of SYBER Green (SYBER Green PCR master mix, Applied Biosystems) on an ABI PRISM 7500Fast (Applied Biosystem). Oligonucleotides used for the specific amplification of genes include:
(§2) The relative changes in gene expression between experimental and control groups were calculated by the Pfaffl method using hprt as internal control gene. Statistical Analysis

HO-1 = HO-1 mRNA expression by qRT-PCR in infected mice; assay type: in vivo, C57BL/6 mice; settings: day 3 after infection
Protocol: as §1, §2

P. berghei ANKA GFP = assay: Adjunctive/adjuvant therapy with artesunate after onset of ECM; assay type: in vivo, C57BL/6 mice; settings: during administration of AS, between days 5 and 6
Protocol: Thus, the inventors decided to test Compound 1 as an adjunctive and adjuvant therapy during the acute phase of ECM. […] Therefore, the inventors assessed the combination of Compound 1 and AS on parasite clearance and clinical recovery from ECM. Two AS and Compound 1 combinations were tested: (i) Adjunctive therapy: AS and Compound 1 were administered concomitantly for 2 days after the onset of CM followed by a 3-day treatment with Compound 1 alone, or (ii) Adjuvant therapy: AS was administered on the first 2 days after CM onset followed by Compound 1 administration for 3 more days.
In order to evaluate the clinical presentation of experimental cerebral malaria, a classification was used in clinical stages from 0 to 4 (see, e.g., Bienvenu et al., Acta Trop (2008) 106:104-8; Franklin et al., Proc Natl Acad Sci USA (2011) 108:3689-94). Briefly, stage 0 indicates no detectable clinical symptoms, stage 1, ruffled fur; stage 2, ruffled fur and unbalancing; stage 3, limb paralysis and respiratory distress and stage 4, convulsions, coma or death. The mice were clinically classified before and after the treatment to evaluate the clinical recovery.
CORM-2 (Sigma-Aldrich) and Compound 2 were solubilized using 10% dimethyl sulfoxide (DMSO; Sigma-Aldrich) in PBS. CORM-3 and Compound 1 were solubilized in PBS (lx). CORM-2 solution (20 mg/kg of body weight) was administered intravenously (i.v.) according to the chosen schedules. […] As vehicle control, we used a solution of 10% DMSO in PBS administered i.v. The concentrations of CORM-2 used in the present study were based on previous reports (see, e.g., Chen et al. Am. J. Pathol. (2009) 175:422-429; Sun et al., World. J. Gastroenterol. (2008) 14:547-553). Artesunate is presented as a powder of artesunic acid. Artesunate (AS) solution was prepared by dissolving 60 mg of anhydrous artesunic acid in 1 ml of sodium bicarbonate (5%) to form sodium artesunate and then diluted in 5 ml of NaCl (0.9%). An AS solution (i.p.) was administered at 40 mg/Kg/day, as described previously (see, e.g., Bienvenu, Acta Trop (2008) 106:104-108). The AS treatment was started when the infected non-treated mice presented the clinical stage 1 for experimental cerebral malaria.

[1] = test system: Myoglobin (Mb) from equine skeletal muscle; assay: Deoxy-myoglobin (Mb) carbonylation assay, CO release; assay type: biochemical; settings: after 15 minutes of incubation with deoxy-Mb, PBS pH 7.4
Protocol: The CO donation capacity of Compound 1 by a deoxy-myoglobin (Mb) carbonylation assay was then evaluated (see, e.g., Clark et al., Am J Pathol (1992) 140:325-336).
The Mb assay was performed as described in Clark et al., Circ. Res. (2003) 93:2-8. A stock solution of Myoglobin (Mb) from equine skeletal muscle was prepared by dissolving the protein in PBS7.4. From this solution aliquots were taken to a cuvette (final concentration between ca. 60 μM) and Na2S2O4 in PBS, pH 7.4 (10 mg/mL solution; 0.1% final concentration) was added to convert met-Mb into deoxy-Mb. The reactions were done by mixing in the same cuvette and by this order, the Mb stock solution, the Na2S2O4 solution, a calculated amount of a solution of Compound I and adding PBS to obtain the desired final volume. […] Two controls were done in duplicate, the negative control (0% CO-Mb), a deoxy-Mb solution and the positive control (100% CO-Mb), obtained by bubbling pure CO gas into the deoxy-Mb solution for 10-15 min. The experimental spectrum was fitted as a weighted sum of the deoxy-Mb and the CO-Mb spectra. […] The absorbance spectrum was converted into a percentage of CO-Mb and the amount of CO liberated was calculated as molar equivalents of CO based on the initial concentration of Compound I (see FIG. 10).

IFN-γ = IFN-γ mRNA expression in brain by qRT-PCR; assay type: in vivo, C57BL/6 mice
Protocol: as §1, §2

[2] = BBB disruption by Evans blue accumulation in brain parenchyma; assay type: in vivo, C57BL/6 mice; settings: when control mice showed signs of ECM
P. berghei ANKA [3] = assay: In vitro replication of P. berghei ANKA; assay type: cell-based, Plasmodium berghei; settings: 24 h
Protocol: The data led the inventors to wonder whether Compound 1 could have a direct anti-parasitic effect on P. berghei ANKA and P. falciparum parasites. To this end, the effect of Compound 1 and the anti-malarial chloroquine (CQ) was monitored on the in vitro replication of P. falciparum 3D7 isolate and P. berghei ANKA for 48 h and 24 h, respectively.

[4] = Brain histology (hematoxylin and eosin) in ECM; assay type: in vivo, C57BL/6 mice; settings: P. berghei ANKA-infected mice
Protocol: For evaluation of histological features, mice were deeply anesthetized until cessation of breathing when infected control mice presented signs of ECM or ALI. The livers, lungs, and brains were removed and fixed in 10% buffered formalin for 24-72 h. Four-micron sections were cut from paraffin-embedded tissues and stained with hematoxylin and eosin according to standard procedures. Histological analyses were performed on a Leica microscope DM 2500 (Leica Microsystems).

VEGF = VEGF protein levels in plasma (ELISA), M-AALI model; assay type: in vivo; settings: infected DBA/2 mice
Protocol: Mouse VEGF in plasma samples was determined using a commercial ELISA kit (R&D Systems) following the manufacturer's instructions. The group classification was only performed by the end of each experiment after determining the cause of death.

P. berghei ANKA [5] = assay: Parasite r18S (pRBC accumulation) in brain by qRT-PCR; assay type: in vivo, C57BL/6 mice
Protocol: as §1, §2

P. berghei ANKA [6] = assay: Malaria-associated acute lung injury (M-AALI) model; assay type: in vivo, DBA/2 mice; settings: i.v. twice daily between days 2 and 4 after infection
Source text: The M-AALI model, based on the infection of DBA-2 mice with P. berghei ANKA, is characterized by dyspnea, airway obstruction, hypoxemia, pulmonary exudate and elevated VEGF levels in plasma, followed by death between days 7 and 12 after infection.
Red blood cells infected with green fluorescent protein (GFP)-transgenic P. berghei ANKA and P. berghei ANKA was used to infect mice (see, e.g., Franke-Fayard et al. Mol Biochem Parasitol (2004) 137:23-33). Cryopreserved parasites were passed once through C57BL/6 or DBA-2 mice before being used to infect experimental animals. […] The infected mice were monitored daily for clinical symptoms of experimental cerebral malaria (ECM) including hemi- or paraplegia, head deviation, tendency to roll over on stimulation, ataxia and convulsions, or ALI, including dyspnea. […] Parasitemia was assessed by flow cytometry for mice infected with GFP-expressing P. berghei ANKA, using tail blood, as previously described (see, e.g., Pamplona et al., Nat Med (2007) 13:703-710). Mean parasitemia is expressed as percentage of infected red blood cells. For mice infected with non-GFP P. berghei parasitemia was assessed daily by microscopic counting of Giemsa-stained thin blood smears. Mean parasitemia is expressed as percentage of infected red blood cells. Survival is expressed as percentage. […]

C[SH]([C@@H]1OC(CO)[C@H](O)[C@H](O)C1O)[Ru]([Cl])([Cl])([CH]=O)([CH]=O)[CH]=O (some centres unmarked) [Compound 1, Tricarbonyldichloro(methylthiogalactopyranoside) Ru(II)]
CD8-β-chain mRNA expression in the brain vs Compound 2-treated mice (CD8β): significantly lower
HO-1 mRNA expression in brain vs non-infected and Compound 2-treated mice (HO-1): not significantly different
interference with the anti-malarial action of AS (P. berghei ANKA GFP): did not interfere with the anti-malarial action of AS in vivo
CO transferred to Mb [1]: approximately 1 equivalent of CO
IFN-γ mRNA expression vs infected Compound 2-treated mice (IFN-γ): reduced
BBB disruption [2]: did not show any evidence of BBB disruption
inhibition of in vitro growth (P. berghei ANKA [3]): does not inhibit in vitro growth
neuropathologic features in brain sections [4]: less hemorrhages, and the vessels had lower accumulation of pRBC and leukocytes
VEGF levels in plasma (VEGF): significantly lower
pRBC accumulation in the brain vs Compound 2-treated mice (P. berghei ANKA [5]): significantly lower
mice that developed M-AALI (P. berghei ANKA [6]): None
